Where only a bound is given, the exact number is not on record here.

This experiment deals with T1, CDK9/CyclinT1 (Homo sapiens, UniProt P50750).
T1 construct: purchased ProQinase/Reaction Biology, USA #0371-0345-1
T1 sequence (P50750 whole entry): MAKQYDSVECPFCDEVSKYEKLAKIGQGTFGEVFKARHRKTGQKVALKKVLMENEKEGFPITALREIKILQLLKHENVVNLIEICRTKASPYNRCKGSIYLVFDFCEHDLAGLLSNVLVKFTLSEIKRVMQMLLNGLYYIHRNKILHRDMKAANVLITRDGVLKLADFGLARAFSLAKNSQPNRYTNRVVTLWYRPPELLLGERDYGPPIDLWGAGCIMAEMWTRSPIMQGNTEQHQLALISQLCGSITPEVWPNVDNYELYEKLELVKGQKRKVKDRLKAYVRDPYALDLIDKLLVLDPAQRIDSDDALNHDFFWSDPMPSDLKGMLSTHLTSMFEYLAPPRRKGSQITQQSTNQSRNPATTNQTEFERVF
T1 sequence (O60563 whole entry partner): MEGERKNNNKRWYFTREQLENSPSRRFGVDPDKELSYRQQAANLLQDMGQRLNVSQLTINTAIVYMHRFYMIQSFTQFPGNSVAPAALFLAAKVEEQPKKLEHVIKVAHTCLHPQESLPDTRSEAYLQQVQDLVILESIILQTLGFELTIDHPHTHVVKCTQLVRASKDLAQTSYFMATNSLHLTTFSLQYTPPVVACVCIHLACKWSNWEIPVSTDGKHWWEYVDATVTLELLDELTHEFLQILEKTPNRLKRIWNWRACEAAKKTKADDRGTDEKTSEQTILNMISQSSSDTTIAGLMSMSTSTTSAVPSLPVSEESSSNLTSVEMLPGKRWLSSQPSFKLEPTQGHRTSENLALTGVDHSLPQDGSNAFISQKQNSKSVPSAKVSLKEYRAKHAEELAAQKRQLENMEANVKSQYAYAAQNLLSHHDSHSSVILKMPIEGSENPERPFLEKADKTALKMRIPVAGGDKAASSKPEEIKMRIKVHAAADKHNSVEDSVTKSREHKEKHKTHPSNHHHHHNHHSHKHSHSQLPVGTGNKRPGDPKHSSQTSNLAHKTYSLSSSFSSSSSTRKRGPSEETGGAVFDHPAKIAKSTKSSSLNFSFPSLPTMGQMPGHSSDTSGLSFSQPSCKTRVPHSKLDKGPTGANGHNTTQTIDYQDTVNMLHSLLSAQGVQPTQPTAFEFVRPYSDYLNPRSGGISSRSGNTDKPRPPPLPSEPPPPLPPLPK
The experiment can be described thus: CDK9/T1 ADPGlo kinase assay. It counts as biochemical. Conditions: CDK9/CyclinT1 6 nM, ATP 10 microM, PDKtide 40 microM, 120 min RT. On the procedure: The testing compound was evaluated in 12 concentrations in a 1:3 dilution series, starting from 5microM as the highest concentration.
In a white 384 microplate (Greiner bio-one, Austria #784904,) with 2 microL of 3-fold concentrated CDK9/CyclinT1 (ProQinase/Reaction Biology, USA #0371-0345-1, LOT.: 012), final concentration (f.c.) 6 nM, in 1×kinase buffer, 2 microL of compound (3× fold concentrated in f.c. 1.66% DMSO/H2O) was added and incubated at Room Temperature (RT) for 10 min. Then 2 microL of Substrate/ATP-Mix (3×PDKtide f.c. 40 microM, SignalChem Biotech, Canada via Biozol, Eching, Germany #P10-58, LOT.: L2230-7 and 3×UltraPure ATP f.c. 10 microM (ADP Glo Kinase assay, Promega GmbH, Germany #V9102)) were added, mixed and incubated for 120 min at RT.
After incubation time, 5 microL of ADP Glo reagent (ready to use, ADP Glo Kinase assay, Promega GmbH, Germany #V9102) were added, mixed and incubated for 40 min at RT.
In the last step, 10 microL of ADP Glo Detection reagent (ready to use, ADP Glo Kinase assay, Promega GmbH, Germany #V9102) were added, mixed and incubated for 30 min at RT.
GloMax Discover GM3000 Reader (Promega GmbH, Germany 9700000249) was used for the readout.
The inhibitor concentration was plotted against the luminescence to determine the IC50 using XLFit 5.5 (IDBS, Guildford) to fit to a sigmoidal dose response curve with a variable slope.
A general note: ADP-Glo turns the ADP formed in a reaction into a luminescent signal.
On to `Fc1cccc(F)c1-c1nc(Nc2cnn([C@H]3CC[C@H](N4CCOCC4)CC3)c2)n2nccc2n1` [Example #68, 2-(2,6-difluorophenyl)-N-(1-((1r,4r)-4-morpholinocyclohexyl)-1H-pyrazol-4-yl)pyrazolo[1,5-a][1,3,5]triazin-4-amine], for which the IC50 (as a rule, the concentration that gives 50% inhibition) was under 200 nM.

For the molecule `Fc1cccc(F)c1-c1nc(NC2CCC(N3CCOCC3)CC2)n2nccc2n1` (stereo not shown) [Example #70, 2-(2,6-difluorophenyl)-N-((1r,4r)-4-morpholinocyclohexyl)pyrazolo[1,5-a][1,3,5]triazin-4-amine], the IC50 is under 20 nM.

The molecule `Fc1cccc(Cl)c1-c1nc(Nc2cnn(C3CCN(C4CCOCC4)CC3)c2)n2nccc2n1` [Example #71, 2-(2-chloro-6-fluorophenyl)-N-(1-(1-(tetrahydro-2H-pyran-4-yl)piperidin-4-yl)-1H-pyrazol-4-yl)pyrazolo[1,5-a][1,3,5]triazin-4-amine] had an IC50 of under 200 nM. Then `Fc1cccc(F)c1-c1nc(Nc2cnn(C3CCN(C4CCOCC4)CC3)c2Cl)n2nccc2n1` [Example #73, N-(5-chloro-1-(1-(tetrahydro-2H-pyran-4-yl)piperidin-4-yl)-1H-pyrazol-4-yl)-2-(2,6-difluorophenyl)pyrazolo[1,5-a][1,3,5]triazin-4-amine], with under 1000 nM.

Turning to `Fc1cccc(F)c1-c1nc(Nc2cnn(C3CCNCC3)c2)n2nccc2n1` [Example #74, 2-(2,6-difluorophenyl)-N-(1-(piperidin-4-yl)-1H-pyrazol-4-yl)pyrazolo[1,5-a][1,3,5]triazin-4-amine], the IC50 is under 200 nM. `Fc1cccc(Cl)c1-c1nc(N[C@H]2CC[C@H](N3CCOCC3)CC2)n2nccc2n1` [Example #76, 2-(2-chloro-6-fluorophenyl)-N-((1r,4r)-4-morpholinocyclohexyl)pyrazolo[1,5-a][1,3,5]triazin-4-amine] gave an IC50 of under 200 nM. Consider `Cc1cnn2c(Nc3cnn(C4CCN(C5CCOCC5)CC4)c3)nc(-c3c(F)cccc3F)nc12` [Example #77, 2-(2,6-difluorophenyl)-8-methyl-N-(1-(1-(tetrahydro-2H-pyran-4-yl)piperidin-4-yl)-1H-pyrazol-4-yl)pyrazolo[1,5-a][1,3,5]triazin-4-amine], for which the IC50 was under 200 nM. The same measure for `Fc1cccc(F)c1-c1nc(Nc2cnn(C3CCN(CC4CC4)CC3)c2)n2nccc2n1` [Example #80, N-(1-(1-(cyclopropylmethyl)piperidin-4-yl)-1H-pyrazol-4-yl)-2-(2,6-difluorophenyl)pyrazolo[1,5-a][1,3,5]triazin-4-amine]: under 200 nM. The same measure for `FCCN1CCC(n2cc(Nc3nc(-c4c(F)cccc4F)nc4ccnn34)cn2)CC1` [Example #81, 2-(2,6-difluorophenyl)-N-(1-(1-(2-fluoroethyl)piperidin-4-yl)-1H-pyrazol-4-yl)pyrazolo[1,5-a][1,3,5]triazin-4-amine]: under 200 nM.

On to `COC(=O)N1CCC(n2cc(Nc3nc(-c4c(F)cccc4F)nc4ccnn34)cn2)CC1` [Example #82, methyl-4-(4-((2-(2,6-difluorophenyl)pyrazolo[1,5-a][1,3,5]triazin-4-yl)amino)-1H-pyrazol-1-yl)piperidine-1-carboxylate], for which the IC50 was under 1000 nM. Then `Fc1cccc(F)c1-c1nc(Nc2cnn(C3CCN(C4CC4)CC3)c2)n2nccc2n1` [Example #83, N-(1-(1-cyclopropylpiperidin-4-yl)-1H-pyrazol-4-yl)-2-(2,6-difluorophenyl)pyrazolo[1,5-a][1,3,5]triazin-4-amine], with under 200 nM; and `Fc1cccc(F)c1-c1nc(Nc2cnn(C3CCN(C4COC4)CC3)c2)n2nccc2n1` [Example #84, 2-(2,6-difluorophenyl)-N-(1-(1-(oxetan-3-yl)piperidin-4-yl)-1H-pyrazol-4-yl)pyrazolo[1,5-a][1,3,5]triazin-4-amine], with under 1000 nM; and `C=CCCN1CCC(n2cc(Nc3nc(-c4c(F)cccc4F)nc4ccnn34)cn2)CC1` [Example #87, N-(1-(1-(but-3-en-1-yl)piperidin-4-yl)-1H-pyrazol-4-yl)-2-(2,6-difluorophenyl)pyrazolo[1,5-a][1,3,5]triazin-4-amine], with under 200 nM. The molecule `N#Cc1cnn2c(Nc3cnn(C4CCN(C5CCOCC5)CC4)c3)nc(-c3c(F)cccc3F)nc12` [Example #88, 2-(2,6-difluorophenyl)-4-((1-(1-(tetrahydro-2H-pyran-4-yl)piperidin-4-yl)-1H-pyrazol-4-yl)amino)pyrazolo[1,5-a][1,3,5]triazine-8-carbonitrile] registered an IC50 of under 200 nM.

As for `Fc1cccc(F)c1-c1nc(Nc2cnn(C3CCN(C4CCOCC4)CC3)c2)n2ncc(Cl)c2n1` [Example #92, 8-chloro-2-(2,6-difluorophenyl)-N-(1-(1-(tetrahydro-2H-pyran-4-yl)piperidin-4-yl)-1H-pyrazol-4-yl)pyrazolo[1,5-a][1,3,5]triazin-4-amine], the IC50 is under 20 nM. Then `N#Cc1cnn2c(N[C@H]3CC[C@H](N4CCOCC4)CC3)nc(-c3c(F)cccc3F)nc12` [Example #93, 2-(2,6-difluorophenyl)-4-(((1r,4r)-4-morpholinocyclohexyl)amino)pyrazolo[1,5-a][1,3,5]triazine-8-carbonitrile], with under 200 nM; and `Fc1cccc(F)c1-c1nc(Nc2cnn(C3CCN(C4CCOCC4)CC3)c2)n2ncc(Br)c2n1` [Example #94, 8-bromo-2-(2,6-difluorophenyl)-N-(1-(1-(tetrahydro-2H-pyran-4-yl)piperidin-4-yl)-1H-pyrazol-4-yl)pyrazolo[1,5-a][1,3,5]triazin-4-amine], with under 200 nM.

`Fc1cccc(F)c1-c1nc(N[C@H]2CC[C@H](N3CCOCC3)CC2)n2ncc(Br)c2n1` [Example #95, 8-bromo-2-(2,6-difluorophenyl)-N-((1r,4r)-4-morpholinocyclohexyl)pyrazolo[1,5-a][1,3,5]triazin-4-amine] showed an IC50 of under 20 nM. Consider `CN1CCC(N2CCC(n3cc(Nc4nc(-c5c(F)cccc5F)nc5c(Cl)cnn45)cn3)CC2)CC1` [Example #96, 8-chloro-2-(2,6-difluorophenyl)-N-(1-(1′-methyl-[1,4′-bipiperidin]-4-yl)-1H-pyrazol-4-yl)pyrazolo[1,5-a][1,3,5]triazin-4-amine], for which the IC50 is under 200 nM. Then `CC(C)(C)N1CCN(c2ccc(Nc3nc(-c4c(F)cccc4F)nc4c(Cl)cnn34)cc2)CC1` [Example #97, N-(4-(4-(tert-butyl)piperazin-1-yl)phenyl)-8-chloro-2-(2,6-difluorophenyl)pyrazolo[1,5-a][1,3,5]triazin-4-amine], with under 200 nM; and `O=C(c1ccc(Nc2nc(-c3c(F)cccc3F)nc3c(Cl)cnn23)cc1)N1CCOCC1` [Example #98, (4-((8-chloro-2-(2,6-difluorophenyl)pyrazolo[1,5-a][1,3,5]triazin-4-yl)amino)phenyl)(morpholino)methanone], with under 1000 nM. Then `Fc1cccc(F)c1-c1nc(Nc2cnn(C3CCN(C4CC4)CC3)c2)n2ncc(Cl)c2n1` [Example #99, 8-chloro-N-(1-(1-cyclopropylpiperidin-4-yl)-1H-pyrazol-4-yl)-2-(2,6-difluorophenyl)pyrazolo[1,5-a][1,3,5]triazin-4-amine], with under 200 nM.
